Test results: patent US9353188B2, “Modulators of Plexin B2 activity” (President and Fellows of Harvard College, priority 2011, dated 2016)
Like-named read-outs stand apart in the source and are kept apart here. Residues, ends and D or L forms follow the SMILES beside them.

Legend:
LNCaP cells = assay: LNCaP cell proliferation in phenol red-free and steroid-free medium; format: cell-based, human; details: for LNCaP cell proliferation: steroid-free medium, DHT 10 nM, ANG 0.1 μg/ml, or a mixture of the two
Procedure: (A) HUVE and LNCaP cells were cultured at the density indicated, and incubated with 0.1 μg/ml ANG for 2 h. Nuclear ANG were detected by indirect immunofluorescence with 26-2F and Alex 488 labeled 2nd antibody. (B) LNCaP cells were culture in phenol red-free and charcoal/dextran-stripped (steroid-free) FBS for 2 day and stimulated with DHT (10 nM), ANG (0.1 μg/ml), or a mixture of the two for the time indicated. (C) Dose dependence. ANG was added to the cells and cultured for 4 days. Cell numbers were determined with a Coulter counter.
ANG plays a dual role in prostate cancer progression. It not only mediates tumor angiogenesis but also directly stimulates cancer cell proliferation.

ANG protein = ANG protein (Homo sapiens, UniProt P03950); assay: binding of Plexin B2 peptides to ANG by ELISA and equilibrium dialysis
ANG protein, sequence (P03950 25-147): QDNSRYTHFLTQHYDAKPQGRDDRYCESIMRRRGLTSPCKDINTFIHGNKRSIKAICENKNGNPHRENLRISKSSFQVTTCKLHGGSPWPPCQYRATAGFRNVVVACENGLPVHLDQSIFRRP

[1] = test system: Plexin B2 transfectants of COS-7 cells; assay: nuclear translocation of ANG in Plexin B2-transfected COS-7 cells; format: cell-based, monkey; details: neomycin 10 min, then 1 μg/ml ANG for 2 h
Procedure: The Plexin B2 transfectants were treated with neomycin at the concentration indicated for 10 min and then incubated with 1 μg/ml ANG for 2 h. ANG was detected by immunofluorescence (top panels). Nuclei were stained by DAPI (middle panels). The merged images were shown in bottom panels.
The effect of neomycin on Plexin B2 transfectants of COS-7 cells was examined. […] Therefore, transfection of human Plexin B2 cDNA converted COS-7 cells into ANG responsive cells. In term of nuclear translocation of ANG, which is essential for the biological activity of ANG, Plexin B2 transfectants of COS-7 cells act in a similar fashion as do LNCaP cells and sparsely cultured HUVE cells, the two known ANG responsive cell lines.

[2] = test system: Plexin B2 transfectants of COS-7 cells; assay: AKT phosphorylation in Plexin B2 transfectants of COS-7 cells (Western); format: cell-based, monkey; details: not in vector control, ANG 2 h
Procedure: Vector (A-C) and Plexin B2 (D-F) transfected COS-7 cells were incubated with 1 μg/ml ANG for 2 h. ANG was detected by immunofluorescence (A and D). Nuclei were stained by DAPI (B and E). The merged images were shown in C and F. (G) Vector and Plexin B2 transfectants were incubated with ANG at the concentration indicated for 2 h. Cells were lysed, cell lysates (60 μg protein) were subjected for SDS-PAGE and Western analysis for phospho-AKT and total AKT with respective antibodies.
The phosphorylation status of AKT in the Plexin B2 transfectants of COS-7 cells was examined.

[3] = test system: ANG receptor expressing LNCaP cells; assay: radio receptor assay, binding of 125I-ANG to LNCaP cells; set-up: species or system human; details: 4° C., Scatchard analysis
Procedure: (A) Subconfluent LNCaP cells were incubated with ^125I-ANG at 4° C. for 30 min and bound ANG was determined by a gamma counter. (B) Scatchard plot of the results produced in experiment described in (A).
The thermodynamics of ANG binding to LNCaP cells was determined by a standard radio receptor assay. ANG was labeled with iodine-125 and incubated with ANG receptor expressing LNCaP cells at 4° C.

[4] = test system: ANG receptor expressing LNCaP cells; details: background statement, no data shown; cited from earlier work

## C[C@]12CCC(=O)C[C@@H]1CC[C@@H]1[C@@H]2CC[C@]2(C)[C@@H](O)CC[C@@H]12 [DHT, Dihydrotestosterone, reference compound]
LNCaP cells
  LNCaP cell proliferation: stimulated LNCaP cell proliferation

## LDKVHAKMEANRNAC (listed as Homo sapiens) [SEQ ID NO: 2]
ANG protein
  binding to ANG: able to bind to ANG

## neomycin
[1]
  nuclear translocation of ANG: inhibits nuclear translocation of ANG in the Plexin B2 transfectants of COS-7 cells in a dose-dependent manner

## CC[C@H](C)[C@H](NC(=O)[C@H](CCC(=O)O)NC(=O)[C@@H](NC(=O)[C@H](CC(C)C)NC(=O)[C@@H](NC(=O)[C@H](CO)NC(=O)[C@H](CC(=O)O)NC(=O)[C@H](Cc1ccc(O)cc1)NC(=O)[C@H](CCC(=O)O)NC(=O)[C@H](CO)NC(=O)[C@H](CO)NC(=O)[C@@H](NC(=O)CN)[C@@H](C)O)[C@@H](C)CC)C(C)C)C(=O)N[C@@H](CC(N)=O)C(=O)N[C@@H](CCCCN)C(=O)N[C@@H](CCCNC(=N)N)C(=O)N[C@H](C(=O)N[C@@H](CCCCN)C(=O)O)C(C)C [SEQ ID NO: 1, GTSSEYDSILVEINKRVK] (H-GTSSEYDSILVEINKRVK-OH; N-terminus and C-terminus assumed)
ANG protein
  binding to ANG: able to bind to ANG

## ANG: small, secreted protein Angiogenin, a potent inducer of angiogenesis; human ANG is SEQ ID NO: 5
[2]
  AKT phosphorylation: induced AKT phosphorylation
[3]; read-out: apparent Kd, first ANG binding site
  Kd: 0.45 nM
[3]; read-out: apparent Kd, second ANG binding site
  Kd: 170 nM
LNCaP cells; cultured for 4 days, cell numbers by Coulter counter
  LNCaP cell proliferation, dose dependence: stimulated LNCaP cell proliferation in a dose-dependent manner
LNCaP cells
  LNCaP cell proliferation: stimulated LNCaP cell proliferation in the absence of androgen

## RDGLRGTAVLQRGGLNL (listed as Homo sapiens) [SEQ ID NO: 3]
ANG protein
  binding to ANG: able to bind to ANG

B1: RNase A: protein with 35% amino acid identity to ANG, used on Sepharose column to remove non-specific proteins (protein, UniProt P61823 27-150, looked up)
Ribonuclease pancreatic: KETAAAKFERQHMDSSTSAASSSNYCNQMMKSRNLTKDRCKPVNTFVHESLADVQAVCSQKNVACKNGQTNCYQSYSTMSITDCRETGSSKYPNCAYKTTQANKHIIVACEGNPYVPVHFDASV
[4]
  binding to the LNCaP cell surface: does not bind to the LNCaP cell surface
